Test results: patent US7906510B2, “Amide derivative and pharmaceutical composition containing the same” (Dainippon Sumito Pharma Co., Ltd., priority 2008, dated 2011)
Like-named read-outs stand apart in the source and are kept apart here.

Tests used:
5-HT4 receptor = biological target: T1, 5-HT4 receptor (Cavia porcellus, UniProt O70528); test: Serotonin 4 (5-HT4) receptor binding assay; design: species or system guinea pig; conditions: inhibition of specific binding of 0.1 nM [3H]-GR113808; guinea pig striatum membrane preparations; 37° C., 30 minutes; read-out: IC50
T1 construct: the mixture was suspended to give receptor membrane preparations; from tissue; host or cells: guinea pig (Slc-Hartley) brain striatum membranes
T1 sequence (O70528 whole entry): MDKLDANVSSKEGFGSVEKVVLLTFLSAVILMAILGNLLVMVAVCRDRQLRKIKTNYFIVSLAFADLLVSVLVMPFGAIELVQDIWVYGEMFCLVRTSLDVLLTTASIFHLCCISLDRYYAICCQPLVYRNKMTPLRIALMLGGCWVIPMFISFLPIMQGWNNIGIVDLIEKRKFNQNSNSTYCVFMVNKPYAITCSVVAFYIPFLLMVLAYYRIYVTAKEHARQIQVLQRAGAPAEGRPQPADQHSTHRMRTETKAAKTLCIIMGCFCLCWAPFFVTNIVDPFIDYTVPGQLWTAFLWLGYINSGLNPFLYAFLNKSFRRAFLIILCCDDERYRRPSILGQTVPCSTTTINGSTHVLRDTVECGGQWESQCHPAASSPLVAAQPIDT
Method: 5-HT4 receptor binding assay and preparations of receptor membrane preparations were carried out according to a method of Grossman et al. [see British J. Pharmacol., (1993) 109, 618].
Slc-Hartley guinea pigs (body weight 300 to 400 g) were decapitated to remove brain rapidly, and striatum was isolated. To the obtained tissues were added fifteenfold of Hepes buffer (50 mM, pH7.4, 4° C.), and the mixture was homogenized by Teflon® homogenizer and centrifuged at 48,000×g (4° C.) for 15 minutes. To the resulting precipitate was added Hepes buffer (1 ml) to 30 mg by wet weight of tissues, and the mixture was suspended to give receptor membrane preparations.
0.1 nM [^3H]-GR113808 {chemical name: [1-[2-(methylsulfonylamino)ethyl]-4-piperidinyl]methyl 1-methylindole-3-carboxylate}, receptor membrane preparations, and Hepes buffer (50 mM, pH7.4, 4° C., 1 ml) containing test compounds or 30 μM serotonin were placed in an assay tube, and incubated at 37° C. for 30 minutes. On quenching the reaction, the mixture was rapidly filtered on whatman GF/B filter, which was presoaked in 0.1% polyethyleneimine for 1 hour, by using Brandel cell Harvester, and washed with ice-cooled 50 mM Tris-HCl (pH7.7, 4 ml) three times. To the filter after filtration was added ACS II scintillator, and then a radioactivity was determined by a liquid scintillation counter.
50% inhibition concentrations (IC50) were determined from inhibition rates of test compounds to specific bindings which were obtained by subtracting nonspecific bindings from total binding amounts of [^3H]-GR113808.

[1] = tested on: Male Slc-Hartley guinea pigs; test: Electrocardiographic assay for guinea pig; conditions: dose extending 5% of QTc; i.v. infusion for 15 minutes, anesthetized guinea pigs, ECG lead II
Method: (§1) Male Slc-Hartley guinea pigs were anesthetized to determine electrocardiogram (lead II) under artificial respiration. A drug solution was continuously and intravenously infused via cannula indwelled in cervical veins at a flow rate: 0.2 ml/kg/min for 15 minutes.

Male Slc-ddy mice = test: Mouse defecation assay; type: in vivo; design: key: −: No Effect; +: Moderately Improved (p<0.05); ++: Significantly Improved (p<0.01); conditions: 3 mg/kg orally; stool weight 30, 60 and 120 minutes after administration; Dunnett assay vs control
Method: Male Slc-ddy mice (body weight 25 to 30 g) were used and allowed to ingest food and water ad libitum until commencement of experiments.
A group of 25 mice was divided into 5 groups, which 5 mice each per group were respectively transferred to fasting cages to adjust to new environments for about 1 hour. Then, each mouse was orally administered 3 mg/kg suspension of a test compound in 0.5% tragacanth solution to measure each stool weight of each group 30, 60, and 120 minutes after oral administration.
Efficacies were evaluated by Dunnett assay between test compounds and control.

[2] = tested on: Male Slc-Hartley guinea pigs; conditions: guinea pig, in vivo, iv
Method: as §1

Compound	IC50 (5-HT4 receptor) [nM]	melting point [°C]	ED5% (mg/kg,i.v.) [1] [mg/kg]	Effect (Male Slc-ddy mice)	ED5% (mg/kg,i.v.) [2] [mg/kg]
CCOc1cc(N)c(Cl)cc1C(=O)NC[C@H]1CN(CC2CCN(C(=O)N3CCC3)CC2)CCO1 [Example 208, (S)-4-amino-N-[{4-[(1-(1-azetidinecarbonyl)-4-piperidinyl)methyl]-2-morpholinyl}methyl]-5-chloro-2-ethoxybenzamide]	4.79	166 to 168	–	–	–
CCOc1cc(N)c(Cl)cc1C(=O)NC[C@H]1CN(CC2CCN(C(=O)N(C)C)CC2)CCO1 [Example 72]	9.04	157 to 158	>30	++	–
CCOc1cc(N)c(Cl)cc1C(=O)NC[C@H]1CN(CC2CCN(C(=O)CO)CC2)CCO1 [Example 197]	–	–	–	++	>30
CCOc1cc(N)c(Cl)cc1C(=O)NCC1CN(CC2CCN(C(N)=O)CC2)CCO1 (centres unmarked) [Example 43, 4-amino-N-[{4-((1-carbamoyl-4-piperidinyl)methyl)-2-morpholinyl}methyl]-5-chloro-2-ethoxybenzamide]	–	201 to 207	–	–	–
CCOc1cc(N)c(Cl)cc1C(=O)NCC1CN(CC2CCN(C(=O)OC)CC2)CCO1 (centres unmarked) [Example 93]	9.36	175	–	–	–
